Patent US11116210B2 (priority 2017, dated 2021)

Tested on: Female mosquitoes, Aedes aegypti
Test: Y-tube olfactometer insect repellency assay
Assay type: in vivo
Parameters: key to Significance (attraction vs Control): NS—not significant; *, ** - significantly different; *, ** - significantly different
Conditions: 98%

## CCN(CC)C(=O)c1cccc(C)c1 [DEET, N,N-diethyl-3-methylbenzamide]
  insect repellency, in words: strongest repellency
Vs mineral oil control
  Significance (attraction vs Control): **
